This passage reports IC50 results from patent US9346769B2, “Tetrazolones as inhibitors of fatty acid synthase” (Infinity Pharmaceuticals, Inc., priority 2010, dated 2016).

One may read the IC50 as the concentration that inhibits the measured activity by half. The low end stands for higher potency, the high end for lower potency.

T1 sequence (P49327 whole entry): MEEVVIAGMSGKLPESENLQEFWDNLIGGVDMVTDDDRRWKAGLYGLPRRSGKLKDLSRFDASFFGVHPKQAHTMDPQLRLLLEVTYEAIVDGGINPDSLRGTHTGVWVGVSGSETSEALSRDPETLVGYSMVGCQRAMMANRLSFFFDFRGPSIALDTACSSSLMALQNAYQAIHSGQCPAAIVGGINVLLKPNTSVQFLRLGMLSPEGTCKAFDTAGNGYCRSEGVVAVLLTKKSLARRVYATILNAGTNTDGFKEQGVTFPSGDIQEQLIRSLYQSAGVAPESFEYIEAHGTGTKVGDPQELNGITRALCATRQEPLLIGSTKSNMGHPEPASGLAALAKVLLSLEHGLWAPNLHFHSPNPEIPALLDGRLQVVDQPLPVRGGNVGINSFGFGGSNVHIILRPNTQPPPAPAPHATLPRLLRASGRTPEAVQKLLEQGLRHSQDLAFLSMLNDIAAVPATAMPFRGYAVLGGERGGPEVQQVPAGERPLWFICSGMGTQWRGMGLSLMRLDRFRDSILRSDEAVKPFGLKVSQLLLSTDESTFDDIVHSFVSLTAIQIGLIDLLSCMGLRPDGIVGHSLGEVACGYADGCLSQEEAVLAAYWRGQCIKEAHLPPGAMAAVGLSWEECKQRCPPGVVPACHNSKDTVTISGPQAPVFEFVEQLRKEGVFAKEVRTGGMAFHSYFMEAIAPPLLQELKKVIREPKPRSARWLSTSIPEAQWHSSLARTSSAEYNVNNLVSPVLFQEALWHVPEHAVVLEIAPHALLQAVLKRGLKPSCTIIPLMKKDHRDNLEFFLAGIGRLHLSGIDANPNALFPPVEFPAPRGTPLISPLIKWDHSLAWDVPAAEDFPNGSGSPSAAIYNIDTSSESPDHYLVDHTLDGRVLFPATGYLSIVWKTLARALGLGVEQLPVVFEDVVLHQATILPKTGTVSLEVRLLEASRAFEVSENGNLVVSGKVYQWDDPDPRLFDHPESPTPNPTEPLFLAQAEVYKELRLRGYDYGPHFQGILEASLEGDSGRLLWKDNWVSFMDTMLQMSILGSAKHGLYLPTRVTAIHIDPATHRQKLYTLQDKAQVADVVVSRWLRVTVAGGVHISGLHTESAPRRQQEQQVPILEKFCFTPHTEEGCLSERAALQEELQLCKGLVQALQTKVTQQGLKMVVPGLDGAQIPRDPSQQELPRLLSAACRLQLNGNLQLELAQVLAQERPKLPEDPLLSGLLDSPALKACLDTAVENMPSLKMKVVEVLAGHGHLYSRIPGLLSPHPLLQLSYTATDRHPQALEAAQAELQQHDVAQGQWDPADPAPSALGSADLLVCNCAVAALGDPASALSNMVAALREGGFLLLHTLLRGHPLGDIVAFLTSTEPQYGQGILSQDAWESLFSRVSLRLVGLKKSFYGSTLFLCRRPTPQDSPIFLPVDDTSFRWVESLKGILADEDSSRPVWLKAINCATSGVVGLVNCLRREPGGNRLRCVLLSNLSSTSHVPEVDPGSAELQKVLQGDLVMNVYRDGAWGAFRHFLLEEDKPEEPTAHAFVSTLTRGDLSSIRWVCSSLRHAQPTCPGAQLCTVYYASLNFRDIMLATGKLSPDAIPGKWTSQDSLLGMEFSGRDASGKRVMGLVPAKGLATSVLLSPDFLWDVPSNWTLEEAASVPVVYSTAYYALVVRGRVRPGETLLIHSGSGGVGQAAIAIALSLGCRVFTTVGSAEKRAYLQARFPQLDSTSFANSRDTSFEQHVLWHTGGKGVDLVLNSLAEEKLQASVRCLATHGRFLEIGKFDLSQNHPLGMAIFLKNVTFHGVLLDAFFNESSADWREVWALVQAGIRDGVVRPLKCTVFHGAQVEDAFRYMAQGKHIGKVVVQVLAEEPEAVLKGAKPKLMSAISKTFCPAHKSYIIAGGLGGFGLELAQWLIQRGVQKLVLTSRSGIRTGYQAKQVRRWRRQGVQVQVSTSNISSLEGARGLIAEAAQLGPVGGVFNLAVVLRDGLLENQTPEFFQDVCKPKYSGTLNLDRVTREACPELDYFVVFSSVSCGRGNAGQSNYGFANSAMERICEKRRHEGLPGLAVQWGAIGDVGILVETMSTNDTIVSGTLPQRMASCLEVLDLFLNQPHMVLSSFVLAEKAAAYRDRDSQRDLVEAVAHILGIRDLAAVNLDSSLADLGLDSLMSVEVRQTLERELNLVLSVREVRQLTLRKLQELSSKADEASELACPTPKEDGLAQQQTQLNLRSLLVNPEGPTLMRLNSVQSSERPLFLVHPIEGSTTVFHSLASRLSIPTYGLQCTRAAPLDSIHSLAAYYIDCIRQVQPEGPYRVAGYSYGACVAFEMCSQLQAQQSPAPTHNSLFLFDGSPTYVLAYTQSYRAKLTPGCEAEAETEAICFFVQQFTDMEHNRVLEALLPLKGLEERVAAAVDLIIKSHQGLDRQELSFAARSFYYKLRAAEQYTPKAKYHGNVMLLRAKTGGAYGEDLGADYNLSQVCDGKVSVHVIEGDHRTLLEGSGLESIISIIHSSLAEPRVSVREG

The assay has as its target T1, human FASN (Homo sapiens, UniProt P49327).
T1 construct: was purified from SKBR3 cells using procedures modified from those in Jayakumar et al; endogenous in cells; host or cells: SKBR3 human breast cancer cells (ATCC); Endogenous enzyme purified by ammonium sulfate precipitation and a mono Q column
Nature of the assay: FASN NADPH Consumption Assay. Format: biochemical. To be noted: human FASN purified from SKBR3 cells; starred symbols. Here is the method: Human FASN protein (SEQ ID NO. 1) was purified from SKBR3 cells using procedures modified from those in Jayakumar et al. PNAS 1995, 92:8695-8699. SKBR3 cells were obtained from ATCC and grown in DMEM high glucose medium supplemented with 10% FBS, 1 μg/mL bovine pancreas insulin, 100 U/mL penicillin and 100 µg/mL streptomycin. The confluent cells were trypsinized and washed three times with PBS buffer before frozen in liquid N2 and stored at −80° C. Frozen cells were thawed on ice and resuspended in lysis buffer (25 mM Tris-HCl, pH 7.0, 15 mM NaCl, 1 mM EDTA, and 1 mM DTT) with protease inhibitors. The cells were lysed by sonication, and the cell debris was removed by centrifugation at 20,000 rpm for 30 min. To the supernatant, neutralized saturated ammonium sulfate solution was added to a final concentration of 35%. The solution was left on ice for 1 hr, and the precipitated proteins were harvested by centrifugation at 20,000 rpm for 30 min. The proteins were redissolved in lysis buffer without NaCl and loaded on a mono Q column. Bound proteins were eluted with a linear gradient of NaCl in lysis buffer. Each fraction was analyzed by SDS-PAGE and FASN NADPH consumption assay. The fractions containing FASN were pooled and concentrated to 2-3 mg/mL. Glycerol was added to 20%, and the protein was frozen in liquid N2 and stored at −80° C.
All chemicals were purchased from Sigma (St. Louis, Mo.). The procedures of NADPH consumption assay were similar to those described in Cox et al., PNAS 1983, 80:4233-4237. On a 96-well polypropylene microplate, dilution series (typical concentrations 60 nM-1.0 mM) of test compounds were prepared in DMSO, of which 4.0 μL each was transferred to a black polystyrene assay microplate and mixed with 36 μL FASN assay buffer (50 mM potassium phosphate, pH 7.0, 1.0 mM EDTA, 0.01% NP-40) plus 5.0 mM fresh DTT. FASN protein (40 μL 150 nM FASN) was added per well, and the microplate was incubated at 37° C. for 30 min. Enzyme activity measurement was initiated by addition of 20 μL 5× substrate mixture to final concentrations of 60 nM FASN, 2.4 nM-40 μM compound, 0.2 mM NADPH, 50 μM butyryl-CoA, 0.5 mM malonyl-CoA in 100 μL assay buffer plus 5.0 mM DTT and 4.0% DMSO. NADPH consumption was monitored kinetically by fluorescence (λEx=340 nm, λEm=460 nm) on an EnVision 2100 multilabel plate reader (Perkin Elmer, Waltham, Mass.). FASN enzyme activity (slope) in the presence of 4% DMSO was used as maximum control, whereas background (minimum control) was measured by omission of malonyl-CoA in the substrate mixture. Inhibition curves were fitted by a logistic function to yield IC50 values:
Compounds were assayed as inhibitors of human FASN using the above-described FASN Scintillation Proximity Flashplate Assay (IC50; nM) or FASN NADPH Consumption Assay (*) (IC50; nM). The corresponding activity of the isolated compound is also provided along with the measured mass (ES^+).
For the compound `O=C(Nc1ccccc1)n1nnn(-c2ccccc2)c1=O`, the half-maximal inhibitory concentration (IC50) is above 10000 nM.

Compound `CCN(C(=O)n1nnn(-c2ccccc2)c1=O)c1cc(C(=O)O)ccc1OC` registered an IC50 of 60 to 250 nM.

Take `CCN(C(=O)n1nnn(-c2ccccc2OC)c1=O)c1ccc(C(=O)OCc2ccccc2)c(OC)c1`: the half-maximal inhibitory concentration (IC50) lay in the range of 60 to 250 nM.

Compound `CCN(C(=O)n1nnn(-c2ccccc2OC)c1=O)c1ccc(C(=O)O)cc1OC` showed a half-maximal inhibitory concentration (IC50) of 60 to 250 nM.

For `CCN(C(=O)n1nnn(-c2ccccc2OC)c1=O)c1ccc(C(=O)O)c(OC)c1`, the concentration for half-maximal inhibition (IC50) lay in the range of 60 to 250 nM.

For `CCN(C(=O)n1nnn(-c2ccccc2OC)c1=O)c1cccc(C(=O)O)c1OC`, the IC50 was 250 to 1000 nM.

`COc1ccccc1-n1nnn(C(=O)N(c2ccccc2)c2ccc(C(=O)O)cc2)c1=O` displayed an IC50 below 60 nM.

`CCCOc1ccc(C(=O)O)cc1N(CC)C(=O)n1nnn(-c2ccccc2OC)c1=O` came in with a half-maximal inhibitory concentration (IC50) of 250 to 1000 nM.

Compound `CCCCCCN(C(=O)n1nnn(-c2ccccc2OC)c1=O)c1cc(C(=O)O)ccc1OC` returned a concentration for half-maximal inhibition (IC50) of 250 to 1000 nM.

On to `CCN(C(=O)n1nnn(-c2ccccc2OC)c1=O)c1cc(C(=O)O)ccc1Cl`, for which the IC50 is below 60 nM.

Consider `COc1ccc(C(=O)O)cc1N(CCCc1ccccc1)C(=O)n1nnn(-c2ccccc2OC)c1=O`, for which the concentration for half-maximal inhibition (IC50) was 250 to 1000 nM.

In turn, `CCN(C(=O)n1nnn(-c2ccccc2OC)c1=O)c1cc(C(=O)O)ccc1OC(C)C` yielded an IC50 of 1000 to 10000 nM.

Regarding `CN(C(=O)n1nnn(-c2ccccc2Cl)c1=O)c1ccccc1`, the half-maximal inhibitory concentration (IC50) is 250 to 1000 nM.

In turn, `CC(C)N(C(=O)n1nnn(-c2ccccc2Cl)c1=O)c1ccccc1` yielded an IC50 of 250 to 1000 nM.

`CN(C(=O)n1nnn(-c2ccccc2Cl)c1=O)c1ccc(Br)cc1` gave a 50% inhibitory concentration (IC50) of 60 to 250 nM.

`C=CCN(C(=O)n1nnn(-c2ccccc2Cl)c1=O)c1ccccc1` returned a 50% inhibitory concentration (IC50) of 60 to 250 nM.

`CN(C(=O)n1nnn(-c2ccccc2Cl)c1=O)c1cccc(F)c1`: the IC50 was 250 to 1000 nM.

`C/C=C(/C)c1ccc(N(C)C(=O)n2nnn(-c3ccccc3Cl)c2=O)cc1`: the concentration for half-maximal inhibition (IC50) lay within 250 to 1000 nM.

The compound `CN(C(=O)n1nnn(-c2ccccc2Cl)c1=O)c1ccccc1F` registered an IC50 of 60 to 250 nM.

`CCN(C(=O)n1nnn(-c2ccccc2Cl)c1=O)c1ccccc1` returned a concentration for half-maximal inhibition (IC50) of 60 to 250 nM.

Regarding `CN(C(=O)n1nnn(-c2ccccc2Br)c1=O)c1ccccc1`, the IC50 is 250 to 1000 nM.

On to `CC(C)N(C(=O)n1nnn(-c2c(Cl)cccc2Cl)c1=O)c1ccccc1`, for which the 50% inhibitory concentration (IC50) lay within 250 to 1000 nM.

Compound `CCN(C(=O)n1nnn(-c2c(Cl)cccc2Cl)c1=O)c1cccc(C#N)c1` yielded an IC50 of 60 to 250 nM.

`CCN(C(=O)n1nnn(-c2c(Cl)cccc2Cl)c1=O)c1ccc(C(=O)O)c(OC)c1` registered a half-maximal inhibitory concentration (IC50) of 60 to 250 nM.

Consider `CCN(C(=O)n1nnn(-c2c(Cl)cccc2Cl)c1=O)c1ccc(C(=O)OCc2ccccc2)c(Cl)c1`, for which the half-inhibitory concentration (IC50) was in the range of 60 to 250 nM.

`CCN(C(=O)n1nnn(-c2c(Cl)cccc2Cl)c1=O)c1ccc(C(=O)NS(=O)(=O)c2ccccc2)cc1` displayed a half-inhibitory concentration (IC50) of 60 to 250 nM.

`CCN(C(=O)n1nnn(-c2c(Cl)cccc2Cl)c1=O)c1cccc(N)c1` came in with a concentration for half-maximal inhibition (IC50) of 60 to 250 nM.

In turn, `CCN(C(=O)n1nnn(-c2c(Cl)cccc2Cl)c1=O)c1ccc([N+](=O)[O-])cc1` registered an IC50 of 60 to 250 nM.

`CCN(C(=O)n1nnn(-c2c(Cl)cccc2Cl)c1=O)c1cccc([N+](=O)[O-])c1`: the concentration for half-maximal inhibition (IC50) was 60 to 250 nM.

As for `CS(=O)(=O)NCCCN(C(=O)n1nnn(-c2c(Cl)cccc2Cl)c1=O)c1ccc(C(=O)O)cc1`, the half-maximal inhibitory concentration (IC50) is 1000 to 10000 nM.

As to `CCN(C(=O)n1nnn(-c2c(Cl)cccc2Cl)c1=O)c1ccc(C(=O)OCc2ccccc2)c(OC)c1`, the 50% inhibitory concentration (IC50) lay in the range of 60 to 250 nM.

`CCN(C(=O)n1nnn(-c2c(Cl)cccc2Cl)c1=O)c1cccc(CO[Si](C)(C)C(C)(C)C)c1` came in with an IC50 of 60 to 250 nM.

Compound `O=C(OCc1ccccc1)c1ccc(N(CCc2cccnc2)C(=O)n2nnn(-c3c(Cl)cccc3Cl)c2=O)cc1` gave a 50% inhibitory concentration (IC50) of 250 to 1000 nM.

`O=C(O)c1ccc(N(CCc2cccnc2)C(=O)n2nnn(-c3c(Cl)cccc3Cl)c2=O)cc1`: the IC50 fell in the range of 1000 to 10000 nM.

On to `CCN(C(=O)n1nnn(-c2c(Cl)cccc2Cl)c1=O)c1ccc(C(=O)O)cc1OC`, for which the IC50 lay within 60 to 250 nM.

With `CCN(C(=O)n1nnn(-c2c(Cl)cccc2Cl)c1=O)c1ccc([N+](=O)[O-])cc1F`, the IC50 was 250 to 1000 nM.

`CCN(C(=O)n1nnn(-c2c(Cl)cccc2Cl)c1=O)c1cccc(C(=O)NS(=O)(=O)c2ccccc2)c1`: the 50% inhibitory concentration (IC50) is below 60 nM.

For `CCN(C(=O)n1nnn(-c2c(Cl)cccc2Cl)c1=O)c1cccc(CO)c1`, the 50% inhibitory concentration (IC50) fell in the range of 250 to 1000 nM.

As to `CCN(C(=O)n1nnn(-c2c(Cl)cccc2Cl)c1=O)c1ccc(N)cc1`, the IC50 was 60 to 250 nM.

With `CCN(C(=O)n1nnn(-c2c(Cl)cccc2Cl)c1=O)c1ccccc1`, the IC50 fell in the range of 250 to 1000 nM.

On to `C=CCN(C(=O)n1nnn(-c2c(Cl)cccc2Cl)c1=O)c1ccccc1`, for which the 50% inhibitory concentration (IC50) was 1000 to 10000 nM.

Take `CCN(C(=O)n1nnn(-c2c(Cl)cccc2Cl)c1=O)c1ccc(C(=O)OCc2ccc(OC)cc2)cc1Cl`: the IC50 is 60 to 250 nM.

Turning to `CN(C(=O)n1nnn(-c2c(Cl)cccc2Cl)c1=O)c1ccccc1`, the IC50 is 60 to 250 nM.

The compound `O=C(OCc1ccccc1)c1ccc(N(CCc2ccccc2)C(=O)n2nnn(-c3c(Cl)cccc3Cl)c2=O)cc1` returned a concentration for half-maximal inhibition (IC50) above 10000 nM.

In turn, `CCN(C(=O)n1nnn(-c2c(Cl)cccc2Cl)c1=O)c1cccc(NS(=O)(=O)C(F)(F)F)c1` gave a concentration for half-maximal inhibition (IC50) of 60 to 250 nM.

Consider `CCN(C(=O)n1nnn(-c2c(OC)cccc2OC)c1=O)c1ccc(C(=O)O)c(OC)c1`, for which the half-maximal inhibitory concentration (IC50) was 250 to 1000 nM.

Turning to `CCN(C(=O)n1nnn(-c2c(OC)cccc2OC)c1=O)c1ccc(C(=O)OCc2ccccc2)c(OC)c1`, the 50% inhibitory concentration (IC50) lay in the range of 250 to 1000 nM.

In the case of `CCN(C(=O)n1nnn(-c2c(F)cccc2OC)c1=O)c1ccc(C(=O)OCc2ccccc2)c(OC)c1`, the half-inhibitory concentration (IC50) was below 60 nM.

`COc1cccc(F)c1-n1nnn(C(=O)N(c2cccc(C(=O)O)c2)C2CC2)c1=O` came in with a half-maximal inhibitory concentration (IC50) of 60 to 250 nM.

For `CCCCOc1ccccc1N(CC)C(=O)n1nnn(-c2c(F)cccc2OC)c1=O`, the IC50 lay in the range of 250 to 1000 nM.

The compound `CCN(C(=O)n1nnn(-c2c(F)cccc2OC)c1=O)c1ccccc1C(C)(C)C` gave an IC50 of 1000 to 10000 nM.

`CCN(C(=O)n1nnn(-c2c(F)cccc2C(=O)O)c1=O)c1ccccc1Oc1ccccc1`: the IC50 was in the range of 1000 to 10000 nM.

`CCN(C(=O)n1nnn(-c2c(F)cccc2C(=O)OC)c1=O)c1ccccc1` yielded an IC50 of 60 to 250 nM.

Regarding `CCN(C(=O)n1nnn(-c2c(F)cccc2C#Cc2ccccc2)c1=O)c1ccccc1`, the IC50 lay within 60 to 250 nM.

Compound `CCN(C(=O)n1nnn(-c2c(F)cccc2C#Cc2ccccc2C)c1=O)c1ccccc1` registered an IC50 of 60 to 250 nM.

As to `CCN(C(=O)n1nnn(-c2c(F)cccc2CCc2ccccc2)c1=O)c1ccccc1`, the IC50 was 60 to 250 nM.

`CCN(C(=O)n1nnn(-c2c(F)cccc2CCc2ccccc2C)c1=O)c1ccccc1` returned an IC50 of 60 to 250 nM.

`CCN(C(=O)n1nnn(-c2c(F)cccc2Br)c1=O)c1ccccc1` returned an IC50 of 60 to 250 nM.

The compound `CCN(C(=O)n1nnn(-c2c(F)cc(F)cc2Br)c1=O)c1ccccc1` yielded an IC50 of 60 to 250 nM.

`CN(C(=O)n1nnn(-c2ccccc2Cl)c1=O)c1ccccn1` displayed an IC50 of 1000 to 10000 nM.

As for `CN(C(=O)n1nnn(-c2c(F)cccc2F)c1=O)c1ccccn1`, the IC50 was 250 to 1000 nM.

`CN(Cc1ccccc1)C(=O)n1nnn(-c2ccccc2Cl)c1=O`: the IC50 was 1000 to 10000 nM.

`COc1ccc(CNC(=O)n2nnn(-c3c(Cl)cccc3Cl)c2=O)c(OC)c1` displayed an IC50 above 10000 nM.

For the compound `CN(CCc1ccccc1)C(=O)n1nnn(-c2ccccc2Cl)c1=O`, the IC50 is above 10000 nM.
